B1: 899 chimeric (conjugate)
VH: QSVEESGGRLVTPGTPLTLTCTVSGFSLSSYTMSWVRQACGKGLEYIGIISSSDGTWYANWVKGRFTISKTSTTVDLKMTSLTTEDTATYFCARDGTGNKYYTWDRLDLWGQGTLVTVSS
VL: NIVMTQTPSPVSGAVGGTVTINCQASQSIYNELSWYQQKPGQPPKLLIYYASTLASGVSSRFKGSGSGTQFTLTISGVESVDAATYYCQQGYSSSNVDNVFGGGTEVVVK

Assays:
MDA-MB-468 cells = experiment: In vitro cytotoxicity in MDA-MB-468 cells; format: cell-based, human
PA-1 cells = experiment: In vitro cytotoxicity in PA-1 cells; format: cell-based, human
[1] = Hydrophobicity by analytical HIC; format: physicochemical
Description: For analytical HIC, 5-10 μl of sample (1 mg/ml) was injected onto a TSKgel Butyl-NPR column (4.6 mm ID×3.5 cm L, Tosoh Bioscience, cat. nr. 14947). The elution method consisted of a linear gradient from 100% Buffer A (25 mM sodium phosphate, 1.5 M ammonium sulphate, pH 6.95) to 100% of Buffer B (25 mM sodium phosphate, pH 6.95, 20% isopropanol) at 0.4 ml/min over 20 minutes. A Waters Acquity H-Class UPLC system equipped with PDA-detector and Empower software was used. Absorbance was measured at 214 nm and the retention time of ADCs was determined.

Row | Molecule | IC50 (MDA-MB-468 cells) [µM] | MDA-MB-468 Efficacy (MDA-MB-468 cells) [%] | IC50 (PA-1 cells) [µM] | RTDAR0 ([1]; analytical HIC retention time of DAR0 species) | RTDAR2 ([1]; analytical HIC retention time of DAR2 species) | RTDAR2 − RTDAR0 ([1]; increase in HIC retention time upon conjugation of two linker drugs)
1 | Rituximab-vc-seco-DUBA: non-binding control ADC | 0.0329 | 91 | 0.00832 | – | – | –
2 | B1 | – | – | – | 6.5 | 10.3 | 3.8

From patent US11584801B2, “Anti-5T4 antibodies and antibody-drug conjugates” (Byondis B.V., priority 2015, dated 2023)
